# The SangsterLogP compilation
# Assay: method code SF-AS, from Lembo, S.; Sasso, V.; Silipo, C.; Vittoria, A. (1983). Physicochemical properties and drug design in a set of analgesics. Farmaco [Sci], 38(10)750-761.
# Settings: pH 7.4
row,logD,Compound
1,2.41,COc1ccccc1NC(=O)C(Cl)Cl
2,0.5,N#CCNc1ccccc1C(N)=O
3,2.65,CC(=O)c1ccccc1NC(=O)C(Cl)Cl
4,0.61,CC(=O)CNc1ccccc1C(N)=O
5,2.85,CCCCNc1ccccc1OC
6,1.58,CC(=O)c1ccccc1NCC#N
7,2.33,CCCCNc1ccccc1C(N)=O
8,1.49,COc1ccccc1NCC(C)=O
9,1.3,COc1ccccc1NCC#N

# Assay: not given
# Settings: not given
row,logP,Compound
1,1.02,COc1ccccc1NC(C)=O
2,1.4,CC(=O)Nc1ccccc1C(C)=O
3,1.51,NC(=O)c1ccccc1NC(=O)C(Cl)Cl
4,0.31,CC(=O)Nc1ccccc1C(N)=O
5,1.87,CC(C)Nc1ccccc1C(N)=O
6,1.07,COc1ccccc1NCCO
7,0.63,COc1ccccc1NCC(N)=O
8,1.28,CC(=O)c1ccccc1NCCO
